Results as given in US20090215778A1, “Alpha-substituted Arylmethyl Piperazine Pyrazolo [1,5-alpha]Pyrimidine Amide Derivatives” (priority 2007, published 2009).

How the values were obtained:
[1] = biological target: T1, HIV Env six-helix bundle (6HB) structure (Human immunodeficiency virus type 1 group M subtype B, UniProt P04579); assay: Six-helix bundle (6HB) assay; format: cell-based, HIV-1 (strain RF)
T1 construct: H9 cells chronically infected with HIV-1 (H9/HIV-1RF); endogenous in cells; host or cells: H9 cells chronically infected with HIV-1 strain RF (Env is made from the virus in the infected cells, not by transfection)
Method: 3×10^6H9 cells were incubated with 1 mL of HIV-1 (strain RF) supplemented with 40 μg/mL of DEAE-dextran. Virus and cells were incubated together at 37° C. for 2-4 hours with sporadic shaking to resuspend cells. 10 mL of media (RPMI 1640 containing 10% fetal bovine serum and supplemented with 50 μg/mL gentamicin) was then added and the virus-cell coculture was incubated at 37° C. in a humidified 5% CO2 incubator. 3 days post-infection and every 2-3 days thereafter, the infected H9/HIV-1RF cells were centrifuged, the supernatant was removed, and the cells were resuspended at a density of 0.3×10^6 cells/mL in media (RPMI 1640 containing 10% fetal bovine serum and supplemented with 50 μg/mL gentamicin). Chronically infected H9/HIV-1RF cells were used in experiments starting 12-15 days after infection and up to 40 days post-infection.
This assay determines the effect of compounds on conformational changes in HIV envelope glycoprotein (Env) that are required in order for Env to mediate the fusion of the viral and cellular membranes during virus entry and infection. Specifically, this assay measures the effect of compounds on the formation of the HIV Env six-helix bundle (6HB) structure.
H9 cells chronically infected with HIV-1 (H9/HIV-1RF) were resuspended in Stain/Wash Buffer (1% bovine serum albumin, 0.1% sodium azide in phosphate-buffered saline) and aliquoted at 2.5×10^5 cells per well into 96-well V-bottom plates containing various concentrations of test compounds. Cells and compounds were incubated for 30 minutes at 37° C. Recombinant soluble CD4 (sCD4) was then added to a final concentration of 1 μg/mL. Negative control wells contained no sCD4 and no test compound. Positive control wells contained sCD4 but no test compound. The plate was incubated for 1 hour at 37° C. to allow the sCD4 to bind to HIV Env and induce conformational changes in the Env protein. Antibody that is specific for the HIV Env six-helix bundle conformation was then added (1 μL polyclonal rabbit serum per well), and the plate was incubated for an additional 1 hour at 37° C. to permit antibody binding. The cells were then washed once with Stain/Wash Buffer to remove compound and excess antibody. The cells were resuspended in Stain/Wash Buffer containing PE-labeled anti-rabbit secondary antibody (KPL) at 0.25 μg per well. The cells were incubated for 45 min at 4° C. to permit secondary antibody binding. Fluorescence was detected using a BD FACSArray™ bioanalyzer. Compounds that inhibited Env conformational changes were identified as those that decreased primary antibody binding to the six-helix bundle epitope resulting in a decrease in fluorescence signal.

HIV-1, NL4-3 strain = assay: Virus infection assay (virus entry and single-cycle infection); format: cell-based; conditions: Human immunodeficiency virus 1, NL43, TZM-b1, read-out: Nl4
Method: TZM-b1 indicator cells were propagated in Dulbecco's Modified Eagle's Medium (DMEM) containing 10% fetal bovine serum (FBS, heat-inactivated) and supplemented with gentamicin (50 ug/mL).
This assay determines the effects of compounds on virus entry and single-cycle infection of cells. In this assay, virus (HIV-1, NL4-3 strain) is added to indicator cells expressing the CD4 receptor and both the CXCR4 and CCR5 co-receptor. The cells contain both a lac Z and a luciferase reporter gene under control of the viral LTR transcription promoter. The cells and virus are incubated together in the presence of various concentrations of test compounds. Successful infection of the cells by the virus permits activation of the reporter gene by the viral Tat transcription factor. The resulting beta-galactosidase or luciferase activity is quantitated using a chemiluminescent substrate and a luminescent plate reader.
Specifically, one day prior to infection, 1.5×10^4 TZM-b1 indicator cells were added to each well of a 96-well microtiter plate. On the day of the experiment, virus (MOI 0.01) in 50 μL of medium (Dulbecco's Modified Eagle's Medium) supplemented with DEAE-dextran at a final concentration of 80 μg/mL was added to cells along with various concentrations of test compound in 50 μL of Dulbecco's Modified Eagle's Medium. Control wells had virus alone. Following a 4 hr incubation at 37° C., complete media [DMEM supplemented with 10% fetal bovine serum (FBS, heat-inactivated) and gentamicin (50 ug/mL)] was added. One day post-infection the level of virus infection was quantitated by detection of β-galactosidase expression using the Gal-Screen system (Applied Biosystems).

T1 sequence (P04579 32-519): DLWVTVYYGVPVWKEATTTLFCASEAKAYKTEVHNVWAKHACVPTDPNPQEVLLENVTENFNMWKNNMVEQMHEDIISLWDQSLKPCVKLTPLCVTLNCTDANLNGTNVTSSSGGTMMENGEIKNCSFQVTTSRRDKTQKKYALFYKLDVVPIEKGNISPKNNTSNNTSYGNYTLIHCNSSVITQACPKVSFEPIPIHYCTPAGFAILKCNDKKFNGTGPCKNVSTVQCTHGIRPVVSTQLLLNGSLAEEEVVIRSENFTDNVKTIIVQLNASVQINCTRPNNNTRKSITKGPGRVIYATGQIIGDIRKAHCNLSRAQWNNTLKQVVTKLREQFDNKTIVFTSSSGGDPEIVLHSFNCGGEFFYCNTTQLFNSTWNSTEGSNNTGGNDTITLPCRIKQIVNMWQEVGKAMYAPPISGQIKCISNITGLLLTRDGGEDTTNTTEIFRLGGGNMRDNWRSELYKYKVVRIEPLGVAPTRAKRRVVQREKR
T1 sequence (P04579 520-865): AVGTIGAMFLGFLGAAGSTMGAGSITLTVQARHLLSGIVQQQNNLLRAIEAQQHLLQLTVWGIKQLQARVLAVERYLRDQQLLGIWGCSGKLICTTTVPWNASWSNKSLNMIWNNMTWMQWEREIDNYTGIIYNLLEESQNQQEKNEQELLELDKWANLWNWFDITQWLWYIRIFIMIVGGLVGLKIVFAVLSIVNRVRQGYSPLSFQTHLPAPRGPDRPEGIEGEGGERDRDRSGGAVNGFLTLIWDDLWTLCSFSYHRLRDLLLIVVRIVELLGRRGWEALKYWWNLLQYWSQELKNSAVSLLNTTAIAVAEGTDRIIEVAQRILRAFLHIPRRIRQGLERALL

Structure (SMILES): COc1ccc(-c2nc3c(C(=O)N4CCN(C(CO)c5cccc(NC(C)=O)c5)C[C@H]4C)cnn3c(C(F)(F)F)c2C)cc1 (stereo partly drawn) [acetamide, N-[3-[2-hydroxy-1-[(3R)-4-[[5-(4-methoxyphenyl)-6-methyl-7-(trifluoromethyl)pyrazolo[1,5-α]pyrimidin-3-yl]carbonyl]-3-methyl-1-piperazinyl]ethyl]phenyl]-]
- IC50 [1]: < 1 µM
- IC50 (HIV-1, NL4-3 strain): < 1 µM

Structure (SMILES): COc1ccc(-c2nc3c(C(=O)N4CCN([C@@H](C)c5cccc(NC(C)=O)c5)C[C@H]4C)cnn3c(C(F)(F)F)c2C)cc1 [acetamide, N-[3-[(1S)-1-[(3R)-4-[[5-(4-methoxyphenyl)-6-methyl-7-(trifluoromethyl)pyrazolo[1,5-α]pyrimidin-3-yl]carbonyl]-3-methyl-1-piperazinyl]ethyl]phenyl]-]
- IC50 [1]: < 1 µM
- IC50 (HIV-1, NL4-3 strain): < 1 µM

Structure (SMILES): COc1ccc(-c2nc3c(C(=O)N4CCN([C@@H](C)c5ccc(NC(C)=O)cc5)C[C@H]4C)cnn3c(C(F)(F)F)c2C)cc1 [acetamide, N-[4-[(1S)-1-[(3R)-4-[[5-(4-methoxyphenyl)-6-methyl-7-(trifluoromethyl)pyrazolo[1,5-α]pyrimidin-3-yl]carbonyl]-3-methyl-1-piperazinyl]ethyl]phenyl]-]
- IC50 [1]: > 10.1 µM
- IC50 (HIV-1, NL4-3 strain): 1.1 to 10 µM

Structure (SMILES): COc1ccc(-c2nc3c(C(=O)N4CCN(C(CO)c5cccc(CNC(C)=O)c5)C[C@H]4C)cnn3c(C(F)(F)F)c2C)cc1 (stereo partly drawn) [acetamide, N-[[3-[2-hydroxy-1-[(3R)-4-[[5-(4-methoxyphenyl)-6-methyl-7-(trifluoromethyl)pyrazolo[1,5-α]pyrimidin-3-yl]carbonyl]-3-methyl-1-piperazinyl]ethyl]phenyl]methyl]-]
- IC50 [1]: > 10.1 µM
- IC50 (HIV-1, NL4-3 strain): > 10.1 µM

Structure (SMILES): COc1ccc(-c2nc3c(C(=O)N4CCN(C(CO)c5cccc(C(N)=O)c5)C[C@H]4C)cnn3c(C(F)(F)F)c2C)cc1 (stereo partly drawn) [benzamide, 3-[2-hydroxy-1-[(3R)-4-[[5-(4-methoxyphenyl)-6-methyl-7-(trifluoromethyl)pyrazolo[1,5-α]pyrimidin-3-yl]carbonyl]-3-methyl-1-piperazinyl]ethyl]-]
- IC50 [1]: < 1 µM
- IC50 (HIV-1, NL4-3 strain): < 1 µM

Structure (SMILES): COc1ccc(-c2nc3c(C(=O)N4CCN(C(CO)c5cccc(S(N)(=O)=O)c5)C[C@H]4C)cnn3c(C(F)(F)F)c2C)cc1 (stereo partly drawn) [benzenesulfonamide, 3-[2-hydroxy-1-[(3R)-4-[[5-(4-methoxyphenyl)-6-methyl-7-(trifluoromethyl)pyrazolo[1,5-α]pyrimidin-3-yl]carbonyl]-3-methyl-1-piperazinyl]ethyl]-]
- IC50 [1]: > 10.1 µM
- IC50 (HIV-1, NL4-3 strain): > 10.1 µM

Structure (SMILES): COc1ccc(-c2nc3c(C(=O)N4CCN(C(CO)c5ccccc5C#N)C[C@H]4C)cnn3c(C(F)(F)F)c2C)cc1 (stereo partly drawn) [benzonitrile, 2-[2-hydroxy-1-[(3R)-4-[[5-(4-methoxyphenyl)-6-methyl-7-(trifluoromethyl)pyrazolo[1,5-α]pyrimidin-3-yl]carbonyl]-3-methyl-1-piperazinyl]ethyl]-]
- IC50 [1]: < 1 µM
- IC50 (HIV-1, NL4-3 strain): < 1 µM

Structure (SMILES): COc1ccc(-c2nc3c(C(=O)N4CCN([C@@H](C)c5ccccc5C#N)C[C@H]4C)cnn3c(C(F)(F)F)c2C)cc1 [benzonitrile, 2-[(1S)-1-[(3R)-4-[[5-(4-methoxyphenyl)-6-methyl-7-(trifluoromethyl)pyrazolo[1,5-α]pyrimidin-3-yl]carbonyl]-3-methyl-1-piperazinyl]ethyl]-]
- IC50 [1]: < 1 µM
- IC50 (HIV-1, NL4-3 strain): < 1 µM

Structure (SMILES): COc1ccc(-c2nc3c(C(=O)N4CCN(C(CO)c5cccc(C#N)c5)C[C@H]4C)cnn3c(C(F)(F)F)c2C)cc1 (stereo partly drawn) [benzonitrile, 3-[2-hydroxy-1-[(3R)-4-[[5-(4-methoxyphenyl)-6-methyl-7-(trifluoromethyl)pyrazolo[1,5-α]pyrimidin-3-yl]carbonyl]-3-methyl-1-piperazinyl]ethyl]-]
- IC50 [1]: < 1 µM
- IC50 (HIV-1, NL4-3 strain): < 1 µM

Structure (SMILES): COc1ccc(-c2nc3c(C(=O)N4CCN([C@@H](C)c5ccc(C#N)cc5)C[C@H]4C)cnn3c(C(F)(F)F)c2C)cc1 [benzonitrile, 4-[(1S)-1-[(3R)-4-[[5-(4-methoxyphenyl)-6-methyl-7-(trifluoromethyl)pyrazolo[1,5-α]pyrimidin-3-yl]carbonyl]-3-methyl-1-piperazinyl]ethyl]-]
- IC50 [1]: 1.1 to 10 µM
- IC50 (HIV-1, NL4-3 strain): < 1 µM

Structure (SMILES): COc1ccc(-c2nc3c(C(=O)N4CCN(C(CO)c5cccc(NC(=O)OC(C)(C)C)c5)C[C@H]4C)cnn3c(C(F)(F)F)c2C)cc1 (stereo partly drawn) [carbamic acid, N-[3-[2-hydroxy-1-[(3R)-4-[[5-(4-methoxyphenyl)-6-methyl-7-(trifluoromethyl)pyrazolo[1,5-α]pyrimidin-3-yl]carbonyl]-3-methyl-1-piperazinyl]ethyl]phenyl]-, 1,1-dimethylethyl ester]
- IC50 [1]: 1.1 to 10 µM
- IC50 (HIV-1, NL4-3 strain): 1.1 to 10 µM

Structure (SMILES): COc1ccc(-c2nc3c(C(=O)N4CCN([C@@H](C)c5cccc(NC(=O)OC(C)(C)C)c5)C[C@H]4C)cnn3c(C(F)(F)F)c2C)cc1 [carbamic acid, N-[3-[(1S)-1-[(3R)-4-[[5-(4-methoxyphenyl)-6-methyl-7-(trifluoromethyl)pyrazolo[1,5-α]pyrimidin-3-yl]carbonyl]-3-methyl-1-piperazinyl]ethyl]phenyl]-, 1,1-dimethylethyl ester]
- IC50 [1]: 1.1 to 10 µM
- IC50 (HIV-1, NL4-3 strain): > 10.1 µM

Structure (SMILES): COc1ccc(-c2nc3c(C(=O)N4CCN([C@@H](C)c5ccc(NC(=O)OC(C)(C)C)cc5)C[C@H]4C)cnn3c(C(F)(F)F)c2C)cc1 [carbamic acid, N-[4-[(1S)-1-[(3R)-4-[[5-(4-methoxyphenyl)-6-methyl-7-(trifluoromethyl)pyrazolo[1,5-α]pyrimidin-3-yl]carbonyl]-3-methyl-1-piperazinyl]ethyl]phenyl]-, 1,1-dimethylethyl ester]
- IC50 [1]: > 10.1 µM
- IC50 (HIV-1, NL4-3 strain): < 1 µM

Structure (SMILES): COc1ccc(-c2nc3c(C(=O)N4CCN(C(CO)c5ccccc5NC(=O)C5CC5)C[C@H]4C)cnn3c(C(F)(F)F)c2C)cc1 (stereo partly drawn) [cyclopropanecarboxamide, N-[2-[2-hydroxy-1-[(3R)-4-[[5-(4-methoxyphenyl)-6-methyl-7-(trifluoromethyl)pyrazolo[1,5-α]pyrimidin-3-yl]carbonyl]-3-methyl-1-piperazinyl]ethyl]phenyl]-]
- IC50 [1]: > 10.1 µM
- IC50 (HIV-1, NL4-3 strain): > 10.1 µM

Structure (SMILES): COc1ccc(-c2nc3c(C(=O)N4CCN(C(CO)c5cccc(NC(=O)C6CC6)c5)C[C@H]4C)cnn3c(C(F)(F)F)c2C)cc1 (stereo partly drawn) [cyclopropanecarboxamide, N-[3-[2-hydroxy-1-[(3R)-4-[[5-(4-methoxyphenyl)-6-methyl-7-(trifluoromethyl)pyrazolo[1,5-α]pyrimidin-3-yl]carbonyl]-3-methyl-1-piperazinyl]ethyl]phenyl]-]
- IC50 [1]: < 1 µM
- IC50 (HIV-1, NL4-3 strain): < 1 µM

Structure (SMILES): COc1ccc(-c2nc3c(C(=O)N4CCN([C@@H](CO)c5ccccc5)C[C@H]4C)cnn3c(C(F)(F)F)c2C)cc1 [drawing 184, methanone, [(2R)-4-[(1R)-2-hydroxy-1-phenylethyl]-2-methyl-1-piperazinyl][5-(4-methoxyphenyl)-7-(trifluoromethyl)pyrazolo[1,5-α]pyrimidin-3-yl]-]
- IC50 [1]: < 1 µM
- IC50 (HIV-1, NL4-3 strain): < 1 µM
